Data as given in article PMC10463376, “Design, synthesis, in vitro anticancer, molecular docking and SAR studies of new series of pyrrolo[2,3-d]pyrimidine derivatives” (BMC Chemistry, 2023).

How the values were obtained:
Format in all cases: cell-based, human
caspase 3 [1] = assay: ELISA caspase 3 in Paca2 cells; settings: control 5.34
Text: (§1) Elisa assay was used to determine the concentrations of Human caspases-3, -8, Bax, and Bcl2 in PACA2- and A549-treated cells. Also, the concentrations of caspase-8, Bax, and Bcl2 in MCF7-treated cells were detected. The procedures were followed up according to the instructions described in the following kits; Invitrogen human Caspase-3 Elisa Kit, Catalog KHO1091, DRG® human Caspase-8 ELISA Kit, Catalog (EIA-4863), Human Bax ELISA Kit (ab199080) and Human Bcl-2 ELISA Kit (ab119506) respectively. Shortly, the protocol described in the above kits was as followed; at the beginning, all the reagents, samples and standards were prepared. 100 μl of samples or standard were micro pipetted to each well of micro-well strip and kept at room temperature for 2 h. After washing the micro-well strips three times with washing buffer, the prepared antibody (anti-rabbit-IgG-HRP) at a concentration of 100 μl was added to each well at room temperature for 1 h. Then, the micro-well strips were washed again three times. Afterward, the prepared tetramethyl-benzidine (TMB) solution (100 μl) was added to the micro-well strips and kept for 10 min. […] The absorbance of all samples was measured at a wavelength of 460 nm and compared to that of the standard. Curve fitting software was used to plot a standard curve and the concentrations for the unknown samples were measured from the standard curve.

caspase 8 [2] = assay: ELISA caspase 8 in Paca2 cells; settings: control 4.85
Text: as §1

BAX [3] = assay: ELISA BAX in Paca2 cells; settings: control 3.86
Text: as §1

Bcl2 [4] = assay: ELISA Bcl2 in Paca2 cells; settings: control 16.23
Text: as §1

Paca2 cells = assay: Annexin V-FITC/PI apoptosis flow cytometry, Paca2; settings: Paca2, 24 h, IC50
Method: The percentage of apoptotic cells was detected by using Annexin V-FITC kit catalog number (#K101-25). About 2X10^6 of MCF7 and Paca2 cells were washed in 500 µl of 1 × PBS. Then, the cells were centrifuged and the supernatant was discarded. The cells pellet were re-suspended in the annexin V incubation reagent. The annexin V incubation reagent contained 10 μl binding buffer (10 ×), 10 μl propidium iodide, 1 μl annexin V-FITC, and 79 μl deionized water. The cells were incubated in 100 μl annexin V incubation reagent for 15 min in the dark at room temperature. Finally, the apoptotic cell percentage was detected by flow cytometry using the FITC signal detector (usually FL-1) and PI staining by the phycoerythrin emission signal detector (usually FL-2).

caspase 3 [5] = assay: ELISA caspase 3 in A549 cells; settings: control 6.32
Text: as §1

caspase 8 [6] = assay: ELISA caspase 8 in A549 cells; settings: control 5.83
Text: as §1

BAX [7] = assay: ELISA BAX in A549 cells; settings: control 5.84
Text: as §1

Bcl2 [8] = assay: ELISA Bcl2 in A549 cells; settings: control 16.21
Text: as §1

lung cell line (A549) = assay: DNA fragmentation assay, A549; settings: A549, IC50, 24 h, vs negative control (P < 0.01); Dox. higher than 4b
Method: The DNA fragmentation assay in a pancreatic cell line (Paca2), breast cancer cell lines (MCF-7) and lung cell line (A549) was performed in concordance with the premises established by Yawata with some modifications. Briefly, after 24 h of exposure of Paca2, MCF-7 and A549 cancer cell lines to the prepared compounds in different Petri dishes (60 × 15 mm, Greiner), the cells were suspended and homogenized in 1 ml of medium and then centrifuged for 10 min at 900 rpm. The genomic DNA was extracted as shown in Yawata. About 1 × 10^6 cells of each tested cancer cell line were treated with the IC50 values of the tested compounds. All the cells were collected via trypsinization and washed with Dulbecco`s Phosphate Buffered Saline. Then, the cells were treated with the lysis buffer containing 5 mM ethylenediaminetetraacetic acid (EDTA), 10 mM Tris (pH 7.4), 0.5% Triton X-100 and 150 mM NaCl for 35 min on ice. […] Finally, the percentage of fragmented DNA was determined by performing gel electrophoresis using 2% agarose gel containing 0.1 μg/ml ethidium bromide.
Pancreatic cancer cell line (Paca2), breast cancer cell line (MCF-7) and lung cancer cell line (A549) were used to determine the percentage of DNA fragmentation after the treatment with IC50 of the tested compounds. […] The percentage of fragmented DNA was measured from the absorbance reading at 600 nm wavelength using the following formula: […]

CDK4 = assay: RT-qPCR CDK4 mRNA in A549; settings: A549, compared with Dox.
Method: (§2) All of the extractions were conducted on ice with ice-cold reagents. Total RNA from the different cell lines was isolated using Trizol (Invitrogen; Life Technologies, USA) according to the method of Sthoeger et al.. The 260:280 ratios were measured to determine RNA quality after the isolation method was completed according to the manufacturer’s instructions. A high-capacity cDNA reverse transcription kit was used to produce complementary DNA (cDNA) (Applied Biosystems, USA). […] The relative gene expression method (i.e., ΔΔCT) was used to analyze the real-time PCR data, as explained in Applied Biosystem User Bulletin No. 2. Each sample and gene were normalized using the β-actin gene.

IL-8 = assay: RT-qPCR IL-8 mRNA in A549; settings: A549, compared with Dox.
Method: as §2

| SMILES | caspase 3 level (ELISA) (caspase 3 [1]) [pg/mL] | caspase 8 level (ELISA) (caspase 8 [2]) [pg/mL] | BAX level (ELISA) (BAX [3]) [pg/mL] | Bcl2 concentration (ELISA) (Bcl2 [4]) [pg/mL] | percentage of late apoptotic cells (Q1-UR) (Paca2 cells; control 0.54%) [%] | percentage of necrotic cells (Q1-UL) (Paca2 cells; control 2.27%) [%] | percentage of early apoptotic cells (Q1-LR) (Paca2 cells; control 4.46%) [%] | caspase 3 level (ELISA) (caspase 3 [5]) [pg/mL] | caspase 8 level (ELISA) (caspase 8 [6]) [pg/mL] | BAX level (ELISA) (BAX [7]) [pg/mL] | Bcl2 level (ELISA) (Bcl2 [8]) [pg/mL] | DNA fragmentation value (lung cell line (A549)) | CDK4 mRNA level (CDK4) | IL-8 mRNA level (IL-8) |
| --- | --- | --- | --- | --- | --- | --- | --- | --- | --- | --- | --- | --- | --- | --- |
| CN1CCN(c2nc(C(Cl)(Cl)Cl)nc3c2c(-c2ccc(Br)cc2)c(Cl)n3-c2ccc(Cl)cc2Cl)CC1 [Compound 17, 5-(4-bromophenyl)-6-chloro-7-(2,4-dichlorophenyl)-4-(4-methylpiperazin-1-yl)-2-(trichloromethyl)-7H-pyrrolo[2,3-d]pyrimidine] | 9.14 | 13.86 | 11.85 | 6.26 | 0.86 | 6.17 | 4.74 | – | – | – | – | – | – | – |
| COc1ccc(-c2c(Cl)n(-c3ccc(Cl)cc3Cl)c3ncnc(Cl)c23)cc1OC [Compound 4b, 4,6-dichloro-7-(2,4-dichlorophenyl)-5-(3,4-dimethoxyphenyl)-7H-pyrrolo[2,3-d]pyrimidine] | – | – | – | – | – | – | – | 12.12 | 16.84 | 14.83 | 9.4 | increased significantly | down-regulated | down-regulated |
